Assay results as given in US11701434B2, “Tertiary amino lipidated cationic peptides for nucleic acid delivery” (Nutcracker Therapeutics, Inc., priority 2018, dated 2023).

Legend:
[1] = Dynamic light scattering (DLS) of Fluc mRNA/peptoid formulations: particle size and polydispersity; format: physicochemical; conditions: 5:1 mass ratio peptoid:cargo; for Size (volume average particle size/diameter): Fluc mRNA/peptoid complex; for Size PDI (size polydispersity index): Fluc mRNA/peptoid formulation
Procedure: (§1) In standard formulations, the tertiary amino lipidated and/or PEGylated cationic peptide compound is dissolved in anhydrous ethanol at a concentration of 0.5 mg/mL (for in vitro experiments) or 5 mg/mL (for in vivo experiments). The resulting solutions are stable at room temperature, but should be stored at −20° C. The nucleic acid cargo is dissolved in DNAse or RNAse-free water at a final concentration of 0.2 mg/mL (for in vitro experiments) or 1 mg/mL (for in vivo experiments). These solutions should be stored at −20° C. or at −78° C. for longer time periods. To prepare nanoparticle formulations, the tertiary amino lipidated and/or PEGylated cationic peptide compound is mixed by pipetting with nucleic acid at a mass ratio between approximately 1:1 (peptide compound:cargo) and 20:1. Prior to formulation, tertiary amino lipidated and/or PEGylated cationic peptide compounds and cargo (such as nucleic acid) are diluted in ethanol and acidic buffer (PBS adjusted to pH 5.5 with 0.1 M HCl) respectively to a volume ratio of 1:3 and to target a final cargo concentration of approximately 0.05 mg/mL to 0.2 mg/mL. The exemplary amino lipidated cationic peptoids 1-36 described in Example 2 were combined with firefly luciferase (Flue) mRNA to form nanoparticle compositions to be evaluated for therapeutic and/or prophylactic purposes in vitro or in vivo. The formulations were prepared according to the protocol of Example 3 and mixed by simple pipetting. The mRNA/peptoid formulation at a 5:1 mass ratio of peptoid:cargo were evaluated by dynamic light scattering (DLS) in order to determine the volume average particle size/diameter (nm) of the mRNA/peptoid complex and the size polydispersity index (PDI) within the formulation. The percentage of mRNA encapsulation for each formulation of the exemplary compounds were determined by fluorescence of the Qubit RNA HS (Invitrogen) dye before and after lysis of particles by Triton X-100.

[2] = mRNA encapsulation by Qubit RNA HS dye fluorescence before and after Triton X-100 lysis; format: physicochemical; conditions: Fluc mRNA/peptoid formulation, 5:1 mass ratio peptoid:cargo
Procedure: as §1

Row | Size (volume average particle size/diameter) [1] | Size PDI (size polydispersity index) [1] | % Encapsulation (percentage of mRNA encapsulation) [2] | SMILES
1 | 247.5 nm | 0.274 | 50.9% | CCCCCCCCCCN(CC(N)=O)C(=O)CN(CCCCCCCCCC)C(=O)CN(CCCCCCCCCC)C(=O)CN(CCCCCCCCCC)C(=O)CN(CCc1ccccc1)C(=O)CN(CCc1ccccc1)C(=O)CN(CC1CCNCC1)C(=O)CN(CCc1ccccc1)C(=O)CN(CCc1ccccc1)C(=O)CN(CC1CCNCC1)C(=O)CN(CCc1ccccc1)C(=O)CN(CCc1ccccc1)C(=O)CN(CC1CCNCC1)C(=O)CN(CCc1ccccc1)C(=O)CN(CCc1ccccc1)C(=O)CNCC1CCNCC1 [Compound 32]
2 | 326.7 nm | 0.191 | 99.0% | CCCCCCCCCCCCN(CC(N)=O)C(=O)CN(CCCCCCCCCCCC)C(=O)CN(CCc1ccc(OC)cc1)C(=O)CN(CCc1ccc(OC)cc1)C(=O)CN(CCN)C(=O)CN(CCc1ccc(OC)cc1)C(=O)CN(CCc1ccc(OC)cc1)C(=O)CN(CCN)C(=O)CN(CCc1ccc(OC)cc1)C(=O)CN(CCc1ccc(OC)cc1)C(=O)CNCCN [Compound 4]
3 | 438.7 nm | 0.606 | 50.9% | CCCCCCCCCCN(CC(N)=O)C(=O)CN(CCCCCCCCCC)C(=O)CN(CCc1ccccc1)C(=O)CN(CCc1ccccc1)C(=O)CN(CCNC)C(=O)CN(CCc1ccccc1)C(=O)CN(CCc1ccccc1)C(=O)CN(CCNC)C(=O)CN(CCc1ccccc1)C(=O)CN(CCc1ccccc1)C(=O)CNCCNC [Compound 27]
4 | 282.8 nm | 0.455 | 8.4% | CCCCCCCCCCN(CC(N)=O)C(=O)CN(CCCCCCCCCC)C(=O)CN(CCc1ccccc1)C(=O)CN(CCc1ccccc1)C(=O)CN(CCCN)C(=O)CN(CCc1ccccc1)C(=O)CN(CCc1ccccc1)C(=O)CN(CCCN)C(=O)CN(CCc1ccccc1)C(=O)CN(CCc1ccccc1)C(=O)CNCCCN [Compound 30]
5 | 554 nm | 0.233 | 77.3% | CCCCCCCCCCN(CC(N)=O)C(=O)CN(CCCCCCCCCC)C(=O)CN(CCN)C(=O)CN(CCN)C(=O)CNCCN [Compound 14]
6 |  |  | 3.9% | CCCCCCCCCCN(CC(N)=O)C(=O)CN(CCCCCCCCCC)C(=O)CN(CCCCCCCCCC)C(=O)CN(CCCCCCCCCC)C(=O)CN(CCCCCCCCCC)C(=O)CN(CCCCCCCCCC)C(=O)CN(CCCCCCCCCC)C(=O)CN(CCc1ccccc1)C(=O)CN(CCc1ccccc1)C(=O)CN(CCN)C(=O)CN(CCc1ccccc1)C(=O)CN(CCc1ccccc1)C(=O)CN(CCN)C(=O)CN(CCc1ccccc1)C(=O)CN(CCc1ccccc1)C(=O)CNCCN [Compound 23]
7 | 748.2 nm | 0.538 | 65.4% | CCCCCCCCCCN(CC(N)=O)C(=O)CN(CCCCCCCCCC)C(=O)CN(CCCCCCCCCC)C(=O)CN(CCCCCCCCCC)C(=O)CN(CCCCCCCCCC)C(=O)CN(CCCCCCCCCC)C(=O)CN(CCc1ccccc1)C(=O)CN(CCc1ccccc1)C(=O)CN(CCN)C(=O)CN(CCc1ccccc1)C(=O)CN(CCc1ccccc1)C(=O)CN(CCN)C(=O)CN(CCc1ccccc1)C(=O)CN(CCc1ccccc1)C(=O)CNCCN [Compound 22]
8 | 157 nm | 0.009 | 92.6% | CCCCCCCCCCN(CC(N)=O)C(=O)CN(CCCCCCCCCC)C(=O)CN(CCc1ccccc1)C(=O)CN(CCc1ccccc1)C(=O)CN(CCN)C(=O)CN(CCc1ccccc1)C(=O)CN(CCc1ccccc1)C(=O)CNCCN [Compound 10]
9 | 255.3 nm | 0.247 | 95.9% | CCCCCCCCCCCCN(CC(N)=O)C(=O)CN(CCCCCCCCCCCC)C(=O)CN(CCc1ccccc1)C(=O)CN(CCc1ccccc1)C(=O)CN(CCN)C(=O)CN(CCc1ccccc1)C(=O)CN(CCc1ccccc1)C(=O)CN(CCN)C(=O)CN(CCc1ccccc1)C(=O)CN(CCc1ccccc1)C(=O)CNCCN [Compound 3]
10 | 773.3 nm | 0.021 | 8.4% | CCCCCCCCCCN(CC(N)=O)C(=O)CN(CCCCCCCCCC)C(=O)CN(CCCCCCCCCC)C(=O)CN(CCCCCCCCCC)C(=O)CN(CCc1ccccc1)C(=O)CN(CCc1ccccc1)C(=O)CN(CCNC)C(=O)CN(CCc1ccccc1)C(=O)CN(CCc1ccccc1)C(=O)CN(CCNC)C(=O)CN(CCc1ccccc1)C(=O)CN(CCc1ccccc1)C(=O)CNCCNC [Compound 25]
11 | 356.9 nm | 0.047 | 90.1% | CCCCCCCCN(CC(N)=O)C(=O)CN(CCCCCCCC)C(=O)CN(CCc1ccccc1)C(=O)CN(CCc1ccccc1)C(=O)CN(CCN)C(=O)CN(CCc1ccccc1)C(=O)CN(CCc1ccccc1)C(=O)CN(CCN)C(=O)CN(CCc1ccccc1)C(=O)CN(CCc1ccccc1)C(=O)CNCCN [Compound 1]
12 | 354.9 nm | 0.038 | 87.8% | CCCCCCCCCCN(CC(N)=O)C(=O)CN(CCCCCCCCCC)C(=O)CN(CCc1ccccc1)C(=O)CN(CCc1ccccc1)C(=O)CN(CCN)C(=O)CN(CCc1ccccc1)C(=O)CN(CCc1ccccc1)C(=O)CN(CCN)C(=O)CN(CCc1ccccc1)C(=O)CN(CCc1ccccc1)C(=O)CN(CCN)C(=O)CN(CCc1ccccc1)C(=O)CN(CCc1ccccc1)C(=O)CNCCN [Compound 11]
13 | 448.6 nm | 0.348 | 92.4% | CCCCCCCCCCN(CC(N)=O)C(=O)CN(CCc1ccccc1)C(=O)CN(CCc1ccccc1)C(=O)CN(CCN)C(=O)CN(CCc1ccccc1)C(=O)CN(CCc1ccccc1)C(=O)CN(CCN)C(=O)CN(CCc1ccccc1)C(=O)CN(CCc1ccccc1)C(=O)CNCCN [Compound 6]
14 |  |  | 35.7% | CCCCCCCCCCN(CC(N)=O)C(=O)CN(CCCCCCCCCC)C(=O)CN(CCCCCCCCCC)C(=O)CN(CCCCCCCCCC)C(=O)CN(CCc1ccccc1)C(=O)CN(CCc1ccccc1)C(=O)CN(CCNC)C(=O)CN(CCc1ccccc1)C(=O)CN(CCc1ccccc1)C(=O)CN(CCNC)C(=O)CN(CCc1ccccc1)C(=O)CN(CCc1ccccc1)C(=O)CN(CCNC)C(=O)CN(CCc1ccccc1)C(=O)CN(CCc1ccccc1)C(=O)CNCCNC [Compound 26]
15 | 326.6 nm | 0.37 | 72.2% | CCCCCCCCCCN(CC(N)=O)C(=O)CN(CCCCCCCCCC)C(=O)CN(CCCCCCCCCC)C(=O)CN(CCCCCCCCCC)C(=O)CN(CCCCCCCCCC)C(=O)CN(CCc1ccccc1)C(=O)CN(CCc1ccccc1)C(=O)CN(CCN)C(=O)CN(CCc1ccccc1)C(=O)CN(CCc1ccccc1)C(=O)CNCCN [Compound 20]
16 | 472.8 nm | 0.37 | 90.3% | CCCCCCCCCCN(CC(=O)N(CCN)CC(=O)N(CCc1ccccc1)CC(=O)N(CCc1ccccc1)CC(=O)N(CCCCCCCCCC)CC(=O)N(CCN)CC(=O)N(CCc1ccccc1)CC(=O)N(CCc1ccccc1)CC(N)=O)C(=O)CN(CCc1ccccc1)C(=O)CN(CCc1ccccc1)C(=O)CNCCN [Compound 17]
17 | 435.7 nm | 0.048 | 82.0% | CCCCCCCCCCN(CC(N)=O)C(=O)CN(CCCCCCCCCC)C(=O)CN(CCc1ccccc1)C(=O)CN(CCc1ccccc1)C(=O)CN(CC1CCNCC1)C(=O)CN(CCc1ccccc1)C(=O)CN(CCc1ccccc1)C(=O)CN(CC1CCNCC1)C(=O)CN(CCc1ccccc1)C(=O)CN(CCc1ccccc1)C(=O)CNCC1CCNCC1 [Compound 33]
18 | 296.7 nm | 0.177 | 88.4% | CCCCCCCCCCN(CC(N)=O)C(=O)CN(CCCCCCCCCC)C(=O)CN(CCCCCCCCCC)C(=O)CN(CCc1ccccc1)C(=O)CN(CCc1ccccc1)C(=O)CN(CCN)C(=O)CN(CCc1ccccc1)C(=O)CN(CCc1ccccc1)C(=O)CN(CCN)C(=O)CN(CCc1ccccc1)C(=O)CN(CCc1ccccc1)C(=O)CNCCN [Compound 7]
19 | 374.4 nm | 0.127 | 71.5% | CCCCCCCCCCN(CC(N)=O)C(=O)CN(CCCCCCCCCC)C(=O)CN(CCc1ccccc1)C(=O)CN(CCc1ccccc1)C(=O)CN(CC1CCCN1)C(=O)CN(CCc1ccccc1)C(=O)CN(CCc1ccccc1)C(=O)CN(CC1CCCN1)C(=O)CN(CCc1ccccc1)C(=O)CN(CCc1ccccc1)C(=O)CNCC1CCCN1 (centres unmarked) [Compound 36]
